These results are taken from article PMC6033213, “Structurally simple synthetic 1, 4-disubstituted piperidines with high selectivity for resistant Plasmodium falciparum” (BMC Pharmacology & Toxicology, 2018).

≈ marks a conversion by molar mass, not a printed value. Where two headings read alike, the source gives them in different places.

One data set deals with P. falciparum 3D7. Briefly: Secondary screen: parasite growth inhibition by parasite lactate dehydrogenase (pLDH) assay, 3D7. Type of data set: cell-based, Plasmodium falciparum. The arrangement: key to Antiplasmodial activity class on 3D7: active, IC50 < 5 μg/mL; moderately active: 5 μg/mL ≤ IC50 ≤ 10 μg/mL; weakly active: IC50 ≥ 10 μg/mL. An excerpt:
(§1) Two Plasmodium falciparum parasite strains were obtained from MR4 (Manassas, Virginia, USA) and stored in liquid nitrogen. The 3D7 (MRA-102) strain is chloroquine- sensitive while Dd2 is a multidrug resistant clone of the W2 strain with resistance to chloroquine, quinine, mefloquine, sulfadoxine and pyrimethamine. Parasite stocks were thawed, grown and maintained in continuous culture by the candle jar technique with some modifications. The culture consisted of 4% hematocrit suspension of human O+ erythrocytes in RPMI-1640 medium (10.43 g/L supplemented with 0.01 mg/mL gentamycin, 25 mM Hepes buffer, 25 mM NaHCO3) and 5 g Albumax II. All culture reagents were obtained from Sigma-Aldrich Inc. (Germany) except for Albumax II (Gibco; Invitrogen, USA). Cultures were incubated at 37 °C in 5% CO2.
(§2) After incubation the plate was frozen at − 20 °C for the parasite lactate dehydrogenase (pLDH) assay.
(§3) The reagent preparation and assay were done as described. The plates were subjected to 3 freeze-thaw cycles to haemolyze the red blood cells. One hundred microlitre (100 μL) of Malstat reagent was added to each required well of a fresh microtitre plate followed by 20 μL of culture. Then 25 μL of nitroblue tetrazolium/phenazine ethosulfate (NBT/PES) solution was added initiating the reaction. The plates were then incubated for an hour in the dark and optical density (OD) measured at 650 nm (Emax-Molecular Devices Corporation, California, USA).
(§4) For the parasite lactate dehydrogenase assay, the background OD of blank wells containing non parasitized red blood cells was subtracted from values of all test wells. OD values from control wells void of test compound represented the maximum pLDH activity. The OD values obtained were used to determine the IC50, and IC90 values using the software IC Method IC Estimator V1.2 [18], an online calculator of IC values. Each assay was done twice in duplicates and the 4 IC50 or CC50 values obtained were pooled together and expressed as mean IC ± S.D.

The target in data set [1] is P. falciparum Dd2. Briefly: Secondary screen: parasite growth inhibition by parasite lactate dehydrogenase (pLDH) assay, Dd2. Type of data set: cell-based, Plasmodium falciparum. The arrangement: key to Antiplasmodial activity class on Dd2: active, IC50 < 5 μg/mL; moderately active: 5 μg/mL ≤ IC50 ≤ 10 μg/mL; weakly active: IC50 ≥ 10 μg/mL.
From the text: as §1, §2, §3, §4

For data set [2], the system named is LLC-MK2 monkey kidney epithelial cells. In words: Cytotoxicity test, MTT/formazan assay. It counts as cell-based. To be noted: for SI on 3D7: CC50 on LLC-MK2 cells/IC50 on P. falciparum 3D7. Here is the method: (§5) This was done on monkey kidney epithelial cells, LLC-MK2, (ATCC, USA) as described except for use of same culture medium and conditions for P falciparum above. The cells, 10,000 in 100 μL medium per well, were cultured for 24 h to become confluent and attached to the bottom of the well and the medium replaced with 100 μL of fresh medium. […] A negative control without test substance was included. The plates were incubated for 72 h at 37 °C in 5% CO2 and cell viability were determined using microscopy to observe dead cells which appeared dark and deformed. This was followed by the MTT/formazan assay as described above with slight modification. The CC50 values (50% cytotoxic concentration) for each compound was obtained using Microsoft excel 2007. The selectivity index (SI) was calculated using the formula:3 SI=CC50onLLC‐MK2cells/IC50onP.falciparum
as §4

For data set [3], the system named is P. falciparum Dd2. In words: Primary screen: in vitro parasite growth inhibition at a single concentration, fluorescence microscopy with acridine orange. The settings on record: 40 μg/mL, 48 h, Dd2 chloroquine-resistant strain; for inhibition at 40 µg/mL: Plasmodium falciparum. It counts as cell-based, Plasmodium falciparum.
From the text: as §1
A primary screen for antiplasmodial activity at a single concentration was performed against Dd2 as described with some modifications, to identify active compounds. Stock solutions of compound (1 mg/mL) was initially dissolved in dimethylsulfoxide (DMSO), then gentamycin-free incomplete medium (without Albumax II) added giving 2% final DMSO; the solutions were sterilized and stored. The positive control solutions (artemether and quinine at 5 μg/mL) were prepared similarly. The compounds were tested at a final concentration of 40 μg/mL in duplicate in a 96 well microtitre plate (100 μL per well), followed by 100 μL of 1% parasitized blood. Positive and negative controls (no drug) were included. The plate was incubated under the same culture conditions as above for 48 h and antiplasmodial activity determined by fluorescence microscopy (Leitz Wetzlar, Germany) with acridine orange stain at × 40 magnification under oil immersion. The number of infected erythrocytes (Ei) was counted in 20 monolayer fields (approximately 1500 cells per field) and the percentage parasitaemia was calculated using the formula:1 %parasitaemia=∑Ei/30,000×100
The percentage inhibition per concentration was then obtained using the formula below:2 percentage%inhibition=%parasitaemia of control well‐%parasitaemia of test well/%parasitaemia of control well×100

Data set [4] in a line: Cytotoxicity test, MTT/formazan assay. To be noted: monkey, LLC-MK2 monkey kidney epithelial cells; LLC-MK2 cells, 72 h, MTT/formazan. Type of data set: cell-based, monkey. Here is the method: as §5, §4
Where [5] appears, read: 3D7 chloroquine-sensitive strain, pLDH assay, mean ± S.D.
[6] abbreviates: Dd2 chloroquine-resistant strain, pLDH assay, mean ± S.D.
Where [7] appears, read: Plasmodium falciparum, 3D7 chloroquine-sensitive strain, pLDH assay, mean ± S.D., read-out: IC50.
Where [8] appears, read: Plasmodium falciparum, 3D7 chloroquine-sensitive strain, pLDH assay, mean ± S.D., read-out: IC90.
Where [9] appears, read: Plasmodium falciparum, 3D7 strain, class by IC50, read-out: Antiplasmodial activity class on 3D7.
Where [10] appears, read: Plasmodium falciparum, Dd2 chloroquine-resistant strain, pLDH assay, mean ± S.D., read-out: IC50.
The mark [11] stands for this setting: Plasmodium falciparum, Dd2 chloroquine-resistant strain, pLDH assay, mean ± S.D., read-out: IC90.
The mark [12] stands for this setting: Plasmodium falciparum, Dd2 strain, class by IC50, read-out: Antiplasmodial activity class on Dd2.

On P. falciparum 3D7 (setting [5]), “N-{[1-(4-bromobenzyl) piperidin-4-yl] [4-fluorophenyl] methyl}-3-bromobenzylamine [Compound 14]” registered an IC50 of 2.28 ± 0.64 µg/mL and an IC90 of 11.31 ± 3.50 µg/mL. For the same compound, in the data set with P. falciparum 3D7 (3D7 strain, class by IC50), the “Antiplasmodial activity class on 3D7” value is given as “active”. Also, at P. falciparum Dd2 [1] (setting [6]), the IC50 was 2.57 ± 1.64 µg/mL and the IC90 worked out at 16.21 ± 0.35 µg/mL. Moreover, the “Antiplasmodial activity class on Dd2” value with P. falciparum Dd2 [1] (Dd2 strain, class by IC50) is “active”. Further, in data set [2], the “SI on 3D7” value is on record as 163. For the same compound, the “Inhibition (%) of P. falciparum Dd2 growth” value in the data set with P. falciparum Dd2 [3] was determined as 86.0%.
`O=C(c1ccc(F)cc1)C1CCN(Cc2ccc(Br)cc2)CC1` [Compound 5, [1-(4-bromobenzyl)piperidin-4-yl] [4-fluorophenyl] methanone]: the IC50 with P. falciparum 3D7 (setting [7]) was 10 ± 0.3 µg/mL (≈ 26.6 µM); in the data set with P. falciparum 3D7 (setting [9]) it was no less than 10 µg/mL; with P. falciparum Dd2 [1] (setting [10]), 14.5 ± 1.34 µg/mL (≈ 38.6 µM); in the data set on P. falciparum Dd2 [1] (setting [12]) it was no less than 10 µg/mL. For the same compound, the concentration for an effect of 90% (IC90) with P. falciparum 3D7 (setting [8]) turned out to be 17.2 ± 0.97 µg/mL (≈ 45.8 µM); in the data set with P. falciparum Dd2 [1] (setting [11]) it was 32.3 ± 4.17 µg/mL (≈ 85.9 µM). The compound also registered an inhibition at 40 µg/mL with P. falciparum Dd2 [3] of 64.8%.
For the compound `OC(c1ccc(F)cc1)C1CCN(Cc2ccc(F)cc2)CC1` (centres unmarked) [Compound 7, [1-(4-fluorobenzyl)piperidin-4-yl] [4-fluorophenyl] methanol], the “Antiplasmodial activity class on 3D7” value in the data set on P. falciparum 3D7 (3D7 strain, class by IC50) is “active”. The IC50 with P. falciparum 3D7 (setting [7]) amounted to 4 ± 0.67 µg/mL (≈ 12.6 µM); with P. falciparum Dd2 [1] (setting [10]), 2.52 µg/mL (≈ 7.94 µM). In addition, the IC90 with P. falciparum 3D7 (setting [8]) is 14.6 ± 1.52 µg/mL (≈ 46 µM); in the data set on P. falciparum Dd2 [1] (setting [11]), 17.7 ± 4.34 µg/mL (≈ 55.8 µM). In the data set with P. falciparum Dd2 [1] (Dd2 strain, class by IC50), the “Antiplasmodial activity class on Dd2” value is “active”. In data set [2], the “SI on 3D7” value was found to be 93.67. Also, the “SI on Dd2” value in data set [2] (CC50 on LLC-MK2 cells/IC50 on P. falciparum Dd2) is 148.34. Moreover, the “Mean SI” value in data set [2] (mean of the Selectivity Indices of the 3D7 and Dd2 parasite strains) is 121.01 ± 38.7. This compound also showed a CC50 at 72 h in data set [4] of 375 µg/mL (≈ 1180 µM). The inhibition at 40 µg/mL in the data set on P. falciparum Dd2 [3] came out at 81.3%.
Turning to `O=[N+]([O-])c1ccccc1CN1CCC(C(O)c2ccc(F)cc2)CC1` (centres unmarked) [Compound 10, [1-(2-nitrobenzyl)piperidin-4-yl] [4-fluorophenyl] methanol], the IC50 in the data set on P. falciparum 3D7 (setting [7]) is 13.5 ± 0.54 µg/mL (≈ 39.3 µM); in the data set with P. falciparum 3D7 (setting [9]), no less than 10 µg/mL; in the data set on P. falciparum Dd2 [1] (setting [10]) it was 14 ± 1.76 µg/mL (≈ 40.6 µM); in the data set on P. falciparum Dd2 [1] (setting [12]) it was no less than 10 µg/mL. Moreover, the IC90 with P. falciparum 3D7 (setting [8]) stood at 19.11 ± 0.02 µg/mL (≈ 55.5 µM); in the data set on P. falciparum Dd2 [1] (setting [11]), 35.3 ± 2.02 µg/mL (≈ 102 µM). For the same compound, in the data set with P. falciparum Dd2 [3], the inhibition at 40 µg/mL amounted to 79.7%.
Consider `C=C[C@H]1C[N@@]2CC[C@H]1C[C@H]2[C@H](O)c1ccnc2ccc(OC)cc12` [QN, quinine, reference compound], for which the IC50 in the data set with P. falciparum 3D7 (setting [7]) was found to be 0.171 µg/mL (≈ 0.527 µM); in the data set on P. falciparum Dd2 [1] (setting [10]) it was 0.127 µg/mL (≈ 0.391 µM).
Consider `CO[C@H]1O[C@@H]2O[C@@]3(C)CC[C@H]4[C@H](C)CC[C@@H]([C@H]1C)[C@@]24OO3` [Art, artemether, reference compound], for which the IC50 was 0.045 µg/mL (≈ 0.151 µM) in the data set with P. falciparum 3D7 (setting [7]) and 0.039 µg/mL (≈ 0.131 µM) in the data set with P. falciparum Dd2 [1] (setting [10]). The IC90 with P. falciparum Dd2 [1] (setting [11]) is 0.046 µg/mL (≈ 0.154 µM).
